One test has as its system phosphorylation of YAP. As to the kind of experiment: pYAP HTRF Assay (HEK 293A Cells). It counts as cell-based. The conditions noted are these: HEK293-A, inhibitory activity of phosphorylation of YAP, read-out: LATS1_ICKA_HEK293A IC50. The method, then: Use 3× dilution scheme in DMSO through column 10, lastly diluting further by 10× into column 11. Add 100% DMSO in serum-free and complete medium in columns 1 and 12 as a positive and negative control, respectively. To achieve a dilution of 1:500, use two 0.8 ml 96-well deep-well plates (ThermoFisher AB0765) pre-filled with the medium as intermediate (1:20) and final dilution plate (1:25). (Transfer row-wise) • Flick the cell plate carefully, three to four times or until all wells are clear of any residual liquid. Dispense 50 μL of the compound in medium into respective wells row-wise, incubate at 37° C. for 30 min • After a 30-minute incubation, flick the cell plate carefully, three to four times or until all wells are clear of any residual liquid. Dilute stock Lysis Buffer #4 (4×) in deionized water, complemented with blocking solution, the stock of which is 100×*. Add 75 μL 1× lysis buffer+blocking reagent mix into each well. Mix plate on a shaker for 30 min at room temperature • Dilute stock solution of total/phospho-YAP Eu cryptate & d2 antibody (each) in the ratio of 1:20 with detection buffer. Mix antibody solutions Eu3+ cryptate and d2 (each for total-Yap and phospho-YAP) in the ratio of 1:1*. Transfer 4 μL of the antibody mixture into two separate small-volume 384-well plates assigned for total-YAP and phospho-YAP. Give a short spin to the plates in a benchtop centrifuge set at 1000 rpm for 30 seconds • Row-wise, homogenize the lysate gently by pipetting it up and down, swirling the tip in the well to help scrape off any adherent cells (avoid bubble formation). Row-wise transfer 16 μL cell lysate into the low-volume 384-well plates with 4 μL total-YAP or phospho-YAP antibody reaction mix for a final volume of 20 μL. Spin down the plates in a benchtop centrifuge set at 1000 rpm for 30 seconds • Seal the plates using a vacuum sealer, incubate overnight at room temperature in the dark on a shaker; read the next day • Use a fluorescence emission read using compatible HTRF® reader—BioTek Synergy NEO. […] Included in Cisbio HTRF YAP total kit (#64YATPEH) & YAP phospho-S127 kit (#64YAPPEH).

The target in a further test is LATS1 kinase (Homo sapiens (Human), UniProt O95835). Description: LATS1 Biochemical HTRF Assay. How it is done:
LATS1 Biochemical HTRF Assay
MgCl2 and [1 mM] DTT. 1× Enzymatic buffer diluted from 5× Enzymatic buffer*. Add 0.5 μL of 20× compound in 100% DMSO. […] MgCl2, [1 mM] DTIT and [5 mg/mL] BSA. 5×ERR prepared from 5× Enzymatic buffer with [25 mg/mL] BSA. Mix plate on plate shaker set at 1,350 rpm for 30 seconds, then centrifuge plate at 1,000 rpm for 1 minute. Incubate for 30 minutes at 25° C. on plate shaker set to 500 rpm. […] STK Substrate 1-biotin* then add 2 μL [10 mM] ATP. Mix plate on plate shaker set at 1,350 rpm for 30 seconds, then centrifuge plate at 1,000 rpm for 1 minute. Incubate for 40 minutes at 25° C. on plate shaker set to 500 rpm. […] Streptavidin-XL665 with 1×STK Antibody-Cryptate*. Mix plate on plate shaker set at 1,350 rpm for 30 seconds, then centrifuge plate at 1,000 rpm for 1 minute. Incubate for 60 minutes at 25° C. on plate shaker set to 500 rpm, covered from light.
*(Included in Cisbio KinEASE-STK Si HTRF Kit: 62ST1PEC)

A further test deals with Yap. Description: Yap nuclear translocation in supporting cells of cultured utricles (immunohistochemical analysis). In kind it is cell-based, mice. The conditions noted are these: 10 μM, 24 hr of treatment, control=0.6.
In test [1] the test system is adult utricular supporting cells. As to the kind of experiment: EdU proliferation assay in cultured adult utricles. Conditions: 5 days of treatment, control=20. It counts as cell-based, mice. How it is done: was tested in vitro to explore its mechanism of action and its utility in regenerating hair cells of the ear. The effects of the compounds were tested on utricles isolated from mice eight to twelve weeks of age. Internal ears were dissected from mice euthanized with fluothane and placed into ice-cold Hank's balanced salt solution, and cultured as previously described by Gnedeva, K. & Hudspeth [Proc. Natl. Acad Sci. 112, 14066-14071 (2015)]. For proliferation assays, utricles were cultured with 10 μM 5-ethynyl-2′-deoxyuridine (EdU) that was detected with click chemistry.
After 5 days of treatment, the N-benzyl thiazole evoked robust re-entry into the cell cycle of adult utricular supporting cells, yielding hundreds of EdU+daughter supporting cells (control=20 EdU+ supporting cells; the N-benzyl thiazole-treated=250 EdU+supporting cells; p=0.021 by an unpaired, one-tailed 1-test, control n=2, TO1 n=3).

[2] abbreviates: 2 mM ATP, read-out: LATS1_HTRF_2 mM ATP IC50.

Like-named read-outs stand apart in the source and are kept apart here.

33 compounds from patent US20240343726A1, “PYRROLOPYRIDINE-3- AND 4-CARBOXAMIDE COMPOSITIONS AND METHODS FOR CELLULAR PROLIFERATION” (The Rockefeller University, priority 2021, published 2024) can be followed below.

Sequence of LATS1 kinase (O95835 589-1130): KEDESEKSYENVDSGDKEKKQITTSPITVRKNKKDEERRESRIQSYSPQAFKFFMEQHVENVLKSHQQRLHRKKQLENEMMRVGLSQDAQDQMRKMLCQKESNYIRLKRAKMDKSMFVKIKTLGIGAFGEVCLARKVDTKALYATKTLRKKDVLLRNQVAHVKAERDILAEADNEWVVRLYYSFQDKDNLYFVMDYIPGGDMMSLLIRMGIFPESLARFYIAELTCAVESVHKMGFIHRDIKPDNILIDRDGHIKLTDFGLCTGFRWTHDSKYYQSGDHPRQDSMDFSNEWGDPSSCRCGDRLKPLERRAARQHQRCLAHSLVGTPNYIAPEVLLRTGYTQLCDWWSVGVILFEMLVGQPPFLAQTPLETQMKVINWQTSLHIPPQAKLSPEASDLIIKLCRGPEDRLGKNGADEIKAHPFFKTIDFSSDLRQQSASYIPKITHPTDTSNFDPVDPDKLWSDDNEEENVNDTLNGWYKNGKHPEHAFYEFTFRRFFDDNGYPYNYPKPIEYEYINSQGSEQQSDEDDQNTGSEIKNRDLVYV

Regarding `CCc1ccccc1N1CCS/C1=N\C(=O)c1c[nH]c2ncccc12` [Example 4], the IC50 was 205 nM in the test with phosphorylation of YAP and 4.2 nM on LATS1 kinase (setting [2]).

For `CC1(C)CS/C(=N\C(=O)c2c[nH]c3ncccc23)N1C1CCCCC1` [Example 12], the figures for the IC50 with phosphorylation of YAP and against LATS1 kinase were 37 nM and 1.1 nM, respectively.

With `COCCN(C)Cc1cs/c(=N\C(=O)c2c[nH]c3ncccc23)n1-c1ccccc1Cl` [Example 68], the IC50 with phosphorylation of YAP stood at 270 nM; at LATS1 kinase (setting [2]), 2.8 nM. The matching figures for `O=C(/N=c1\scc(CN2CCOCC2)n1-c1ccccc1Cl)c1c[nH]c2ncccc12` [Example 67]: 147 nM and 1.1 nM. The matching figures for `O=C(/N=C1\SCCCN1C1CCCCC1)c1c[nH]c2ncccc12` [Example 30]: 39 nM and 2.9 nM. The matching figures for `O=C(/N=C1\SCCN1c1ccccc1)c1c[nH]c2ncccc12` [Example 2]: 23 nM and 0.829 nM. Take `O=C(/N=c1\sccn1Cc1ccccc1)c1c[nH]c2ncccc12`: the “Yap nuclear translocation, quantified as a ratio to the constitutively expressed protein Sall2” value with Yap turned out to be 1.0. Moreover, in test [1], the “EdU+ supporting cells (re-entry into the cell cycle)” value is on record as 250.

With `O=C(/N=C1\SCCN1c1ccccc1)n1ccc2ncccc21` [Example 84], the concentration for half-maximal inhibition (IC50) in the test with phosphorylation of YAP was 2290 nM. Turning to `O=C(/N=C1\SCC(CO)CN1c1ccccc1)c1c[nH]c2ncccc12` (centres unmarked) [Example 35, (Z)—N-(5-(hydroxymethyl)-3-phenyl-1,3-thiazinan-2-ylidene)-1H-pyrrolo[2,3-b]pyridine-3-carboxamide], the results for the 50% inhibitory concentration (IC50) in the test with phosphorylation of YAP and on LATS1 kinase (setting [2]) were 392 nM and 3.9 nM, respectively. Regarding `CNC(=O)c1cs/c(=N\C(=O)c2ccnc3[nH]ccc23)n1-c1ccccc1Cl` [Example 58], the half-maximal inhibitory concentration (IC50) in the test with phosphorylation of YAP turned out to be 527 nM; at LATS1 kinase (setting [2]), 48 nM. As for `O=C(/N=c1\sccn1-c1ccccc1Cl)n1ccc2ncccc21` [Example 85], the IC50 with phosphorylation of YAP stood at 31600 nM. `COc1ccccc1N1CCS/C1=N\C(=O)c1c[nH]c2ncccc12` [Example 5]: the IC50 in the test on phosphorylation of YAP is 1700 nM. With `CN(C)Cc1cs/c(=N\C(=O)c2c[nH]c3ncccc23)n1-c1ccccc1Cl` [Example 66, (Z)—N-(3-(2-chlorophenyl)-4-((dimethylamino)methyl)thiazol-2(3H)-ylidene)-1H-pyrrolo[2,3-b]pyridine-3-carboxamide], the IC50 in the test with phosphorylation of YAP was found to be 327 nM; on LATS1 kinase (setting [2]) it was 1.3 nM.

Regarding `O=C(/N=C1\SCCN1C1CCCCC1)c1c[nH]c2ncccc12` [Example 11], the half-inhibitory concentration (IC50) in the test with phosphorylation of YAP was 53 nM; on LATS1 kinase (setting [2]), 1.1 nM. The matching figures for `O=C(/N=C1\SCCCN1c1ccccc1Cl)c1c[nH]c2ncccc12` [Example 28]: 109 nM and 1.6 nM. Regarding `O=C(/N=C1\SCC(CO)N1c1ccccc1)c1c[nH]c2ncccc12` (centres unmarked) [Example 13, (Z)—N-(4-(hydroxymethyl)-3-phenylthiazolidin-2-ylidene)-1H-pyrrolo[2,3-b]pyridine-3-carboxamide], the results for the half-maximal inhibitory concentration (IC50) with phosphorylation of YAP and on LATS1 kinase (setting [2]) were 45 nM and 0.44 nM, respectively. The matching figures for `CC(O)CN1CCS/C1=N\C(=O)c1c[nH]c2ncccc12` (centres unmarked) [Example 19, (Z)—N-(3-(2-hydroxypropyl)thiazolidin-2-ylidene)-1H-pyrrolo[2,3-b]pyridine-3-carboxamide]: 1720 nM and 210 nM.

As for `O=C(/N=C1\SCCN1Cc1ccccc1)c1c[nH]c2ncccc12` [Example 1, (Z)—N-(3-benzylthiazolidin-2-ylidene)-1H-pyrrolo[2,3-b]pyridine-3-carboxamide], the half-inhibitory concentration (IC50) in the test with phosphorylation of YAP came to 19.7 nM; at LATS1 kinase (setting [2]), 11.2 nM. Turning to `O=C(/N=C1\SCCCN1c1ccccc1)c1c[nH]c2ncccc12` [Example 26], the IC50 in the test on phosphorylation of YAP worked out at 69 nM. For `O=C(/N=C1\SCCN1c1ccccc1Cl)c1c[nH]c2ncccc12` [Example 3], the IC50 in the test on phosphorylation of YAP turned out to be 5.15 nM; on LATS1 kinase (setting [2]), 0.297 nM. The matching figures for `O=C(/N=C1\SCCN1c1ccccc1O)c1c[nH]c2ncccc12` [Example 6]: 1.3 nM and 0.59 nM. `COc1cccc(N2CCS/C2=N\C(=O)c2c[nH]c3ncccc23)c1` [Example 9]: the IC50 with phosphorylation of YAP is 1740 nM. For `O=C(/N=C1\SCCCN1Cc1ccccc1)c1c[nH]c2ncccc12` [Example 25], the IC50 amounted to 77 nM with phosphorylation of YAP and 2.5 nM at LATS1 kinase (setting [2]).

Regarding `CN(C)CC1CS/C(=N\C(=O)c2c[nH]c3ncccc23)N1c1ccccc1` (centres unmarked) [Example 14, (Z)—N-(4-((dimethylamino)methyl)-3-phenylthiazolidin-2-ylidene)-1H-pyrrolo[2,3-b]pyridine-3-carboxamide], the IC50 with phosphorylation of YAP was found to be 71 nM; at LATS1 kinase (setting [2]) it was 4.1 nM.

In the case of `CN(C)Cc1cs/c(=N\C(=O)c2c[nH]c3ncccc23)n1Cc1ccccc1` [Example 65, (Z)—N-(3-benzyl-4-((dimethylamino)methyl)thiazol-2(3H)-ylidene)-1H-pyrrolo[2,3-b]pyridine-3-carboxamide], the IC50 in the test with phosphorylation of YAP came to 640 nM; on LATS1 kinase (setting [2]), 15 nM. The matching figures for `CN(C)Cc1cs/c(=N\C(=O)c2c[nH]c3ncccc23)n1C1CCCCC1` [Example 69]: 68 nM and 1.8 nM. With `COc1ccc(N2CCS/C2=N\C(=O)c2c[nH]c3ncccc23)cc1` [Example 7], the half-maximal inhibitory concentration (IC50) with phosphorylation of YAP was found to be 1850 nM.

Regarding `CNC(=O)C1CS/C(=N\C(=O)c2c[nH]c3ncccc23)N(c2ccccc2)C1` (centres unmarked) [Example 34, (Z)-2-((1H-pyrrolo[2,3-b]pyridine-3-carbonyl)imino)-N-methyl-3-phenyl-1,3-thiazinane-5-carboxamide], the IC50 in the test with phosphorylation of YAP came to 1710 nM; on LATS1 kinase (setting [2]), 23 nM. The matching figures for `O=C(/N=C1\SCCCN1c1ccccc1Cl)c1ccnc2[nH]ccc12` [Example 27]: 5560 nM and 200 nM.

For the compound `O=C(/N=C1\SCCN1c1ccccc1Cl)c1ccnc2[nH]ccc12` [Example 17], the 50% inhibitory concentration (IC50) with phosphorylation of YAP came out at 1480 nM; on LATS1 kinase (setting [2]) it was 82 nM. The matching figures for `O=C(/N=C1\SCCN1c1cccc(O)c1)c1c[nH]c2ncccc12` [Example 10]: 39.2 nM and 1.6 nM. Consider `O=C(/N=c1\sccn1-c1ccccc1Cl)c1ccnc2[nH]ccc12` [Example 41], for which, in the test with phosphorylation of YAP, the half-maximal inhibitory concentration (IC50) stood at 4.75 nM.

On to `O=C(/N=C1\SCCN1c1ccc(O)cc1)c1c[nH]c2ncccc12` [Example 8], for which the IC50 in the test on phosphorylation of YAP was 687 nM; at LATS1 kinase (setting [2]), 13 nM.
